Results on 4 molecules are retold here after ChEMBL document CHEMBL5108065 (J Med Chem, 2022).

≈ marks a conversion by molar mass, not a printed value.

The test system of data set [1] is Plasmodium falciparum. Nature of the data set: Antiplasmodial activity against sensitive Plasmodium falciparum NF54 infected in human red blood cells assessed as reduction in [3H]-hypoxanthine incorporation pretreated for 48 hrs followed by [3H]-hypoxanthine addition measured after 24 hrs by scintillation counting method. The data set is classed as functional, organism-based.

Data set [2] is described as follows: Lipophilicity, log D of the compound. The data set is classed as physicochemical. To be noted: octanol/water.
For a further data set, the target named is Cathepsin D (Homo sapiens, UniProt P07339). Nature of the data set: Inhibition of human cathepsin D.
Cathepsin D, sequence (P07339 65-162 limits assumed): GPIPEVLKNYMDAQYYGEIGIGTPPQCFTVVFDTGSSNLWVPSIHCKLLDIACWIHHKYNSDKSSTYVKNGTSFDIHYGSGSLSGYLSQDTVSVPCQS
Cathepsin D, sequence (P07339 169-412 limits assumed): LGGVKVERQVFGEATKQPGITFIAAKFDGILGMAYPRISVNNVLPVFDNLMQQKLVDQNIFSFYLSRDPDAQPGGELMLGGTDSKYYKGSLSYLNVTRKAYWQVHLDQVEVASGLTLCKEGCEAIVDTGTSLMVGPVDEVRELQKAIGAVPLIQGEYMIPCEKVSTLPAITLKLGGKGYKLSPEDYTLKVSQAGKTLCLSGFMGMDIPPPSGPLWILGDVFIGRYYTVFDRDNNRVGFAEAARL
Data set [3] is described as follows: Inhibition of Plasmodium falciparum PMV by FRET assay.
A short description of data set [4]: Inhibition of Plasmodium vivax PMX by FRET assay.
Data set [5] relates to Plasmodium falciparum. The experiment in a line: Antimalarial activity against KAF156 resistant Plasmodium falciparum Dd2 harbouring pf-carl mutated loci assessed as inhibition of parasite growth pretreated for 48 hrs followed by [3H]-hypoxanthine addition measured after 24 hrs by scintillation counting method. Format: functional, organism-based.
Data set [6] relates to Plasmodium falciparum. The experiment in a line: Antimalarial activity against Plasmodium falciparum K1 harbouring Pf-crt, Pf-mdrl,Pf-dhfr, Pf-dhps mutated loci assessed as inhibition of parasite growth pretreated for 48 hrs followed by [3H]-hypoxanthine addition measured after 24 hrs by scintillation counting method. Format: functional, organism-based.
Data set [7] deals with Plasmodium falciparum. Nature of the data set: Antimalarial activity against ELQ300 resistant Plasmodium falciparum Dd2 harbouring pfcytB mutated loci assessed as inhibition of parasite growth pretreated for 48 hrs followed by [3H]-hypoxanthine addition measured after 24 hrs by scintillation counting method. The data set is classed as functional, organism-based.
Data set [8] deals with Plasmodium falciparum. The experiment in a line: Antimalarial activity against DDD107498 resistant Plasmodium falciparum Dd2 harbouring pfeef2 mutated loci assessed as inhibition of parasite growth pretreated for 48 hrs followed by [3H]-hypoxanthine addition measured after 24 hrs by scintillation counting method. The data set is classed as functional, organism-based.
For data set [9], the system named is Plasmodium falciparum. The experiment in a line: Antimalarial activity against Plasmodium falciparum Dd2048 harbouring pfpi4k mutated loci assessed as inhibition of parasite growth pretreated for 48 hrs followed by [3H]-hypoxanthine addition measured after 24 hrs by scintillation counting method. Format: functional, organism-based.
In data set [10] the test system is Plasmodium falciparum. Nature of the data set: Antimalarial activity against Plasmodium falciparum TM90C2b harbouring Pf-crt, Pf-mdrl,Pfd-hfr, Pf-cytbQ0 mutated loci assessed as inhibition of parasite growth pretreated for 48 hrs followed by [3H]-hypoxanthine addition measured after 24 hrs by scintillation counting method. The data set is classed as functional, organism-based.

The nature of data set [11]: Solubility of the compound in FeSSIF at pH 5.8. The data set is classed as physicochemical. To be noted: simulated gi fluid.
The target of another data set is Plasmepsin X (Plasmodium falciparum (isolate 3D7), UniProt Q8IAS0). The experiment in a line: biochemical.
Plasmepsin X, sequence (Q8IAS0 whole entry): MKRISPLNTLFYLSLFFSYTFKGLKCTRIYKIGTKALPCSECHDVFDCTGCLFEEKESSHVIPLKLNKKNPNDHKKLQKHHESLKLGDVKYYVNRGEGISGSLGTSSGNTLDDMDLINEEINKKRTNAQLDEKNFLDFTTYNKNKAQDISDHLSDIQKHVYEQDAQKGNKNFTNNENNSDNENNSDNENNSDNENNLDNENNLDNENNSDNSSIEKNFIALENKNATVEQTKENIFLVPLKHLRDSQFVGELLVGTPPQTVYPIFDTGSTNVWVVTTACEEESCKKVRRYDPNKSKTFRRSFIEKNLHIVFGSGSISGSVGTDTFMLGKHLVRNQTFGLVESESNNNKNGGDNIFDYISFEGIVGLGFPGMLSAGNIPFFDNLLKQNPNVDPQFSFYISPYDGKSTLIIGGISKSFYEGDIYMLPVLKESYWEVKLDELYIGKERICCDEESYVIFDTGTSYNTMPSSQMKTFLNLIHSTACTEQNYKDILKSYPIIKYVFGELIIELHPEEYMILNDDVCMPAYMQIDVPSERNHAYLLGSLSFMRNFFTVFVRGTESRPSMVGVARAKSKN
Data set [12] is described as follows: Metabolic stability in human hepatocytes assessed as intrinsic clearance measured per 10^6 cells. Format: functional, Hepatocyte.
Data set [13] concerns Plasmodium falciparum. The experiment in a line: Antimalarial activity against DSM265 resistant Plasmodium falciparum Dd2 harbouring pf-dhodh mutated loci assessed as inhibition of parasite growth pretreated for 48 hrs followed by [3H]-hypoxanthine addition measured after 24 hrs by scintillation counting method. Format: functional, organism-based.
Another data set is filed under the species Homo sapiens. Nature of the data set: Inhibition of BACE (unknown origin) at 10 uM relative to control.
The next data set has as its target T1, Renin (Homo sapiens, UniProt P00797).
T1 sequence (P00797 whole entry): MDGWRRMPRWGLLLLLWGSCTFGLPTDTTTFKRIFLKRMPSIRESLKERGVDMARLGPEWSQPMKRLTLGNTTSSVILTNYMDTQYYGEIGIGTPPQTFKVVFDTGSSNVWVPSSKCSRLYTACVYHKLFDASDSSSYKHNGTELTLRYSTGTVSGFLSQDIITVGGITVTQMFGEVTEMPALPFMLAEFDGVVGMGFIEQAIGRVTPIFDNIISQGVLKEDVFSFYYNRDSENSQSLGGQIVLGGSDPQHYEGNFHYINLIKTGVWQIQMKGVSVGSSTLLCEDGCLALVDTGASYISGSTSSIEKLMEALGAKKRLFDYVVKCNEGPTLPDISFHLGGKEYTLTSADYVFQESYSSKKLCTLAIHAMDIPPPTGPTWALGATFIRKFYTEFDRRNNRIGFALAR
Nature of the data set: Inhibition of human renin.

The nature of data set [14]: Inhibition of BACE (unknown origin). The arrangement: species or system Homo sapiens.

Description for Plasmepsin X: Inhibition of Plasmodium falciparum recombinant C-terminal TEV cleavable 8his-tagged PMX by FRET assay

In the case of `C[C@@]1(c2cccc(Nc3ccccc3)c2Cl)CC(=O)N(C2CCOCC2)C(=N)N1`, the IC50 came out at 107 nM with Plasmodium falciparum [1]; 58 nM against Cathepsin D; 2700 nM in [3]; 31 nM in data set [4]; 83 nM with Plasmodium falciparum [5]; 112 nM in the data set on Plasmodium falciparum [6]. In addition, the IC50 was 96 nM with Plasmodium falciparum [7]; 82 nM with Plasmodium falciparum [8]; 87 nM in the data set with Plasmodium falciparum [9]; 62 nM in the data set on Plasmodium falciparum [10]; 15 nM against Plasmepsin X; 78 nM in the data set on Plasmodium falciparum [13]. In addition, the pH-dependent lipophilicity (logD) in data set [2] came out at 2.2. Moreover, the solubility in [11] was 1057 µM (≈ 436 µg/mL). The intrinsic clearance in [12] was found to be 28 µL/min.
Take `C[C@@]1(c2cccc(NC(=O)c3ccccc3)c2Cl)CC(=O)N(C2CCOCC2)C(=N)N1`: in data set [2], the logD was determined as 1.2. The IC50 against Cathepsin D was over 10000 nM; in data set [3], over 5000 nM; against Plasmepsin X it was 32 nM. In [12], the intrinsic clearance was found to be 4 µL/min.
Turning to `C[C@@]1(c2cccc(Nc3ccc(C4CC4)nc3)c2Cl)CC(=O)N(C2CCOCC2)C(=N)N1`, in data set [2], the log distribution coefficient (logD) worked out at 2.1. The IC50 against Cathepsin D stood at 1190 nM; against Plasmepsin X it was 37 nM; at Renin it was 1070 nM. Also, the inhibition in the data set listed under Homo sapiens was determined as 52%. Besides, the solubility in [11] was 1161 µM (≈ 527 µg/mL). Moreover, the intrinsic clearance in data set [12] came out at 3 µL/min.
On to `[H]/N=C1\N[C@](C)(c2cccc(Nc3cnc(C4CC4)nc3)c2Cl)CC(=O)N1[C@H]1CCO[C@@H](C)C1`, for which the logD in [2] is reported as 2. For the same molecule, the half-maximal inhibitory concentration (IC50) on Cathepsin D is 215 nM; in data set [14], over 10 µM; against Plasmepsin X it was 9 nM; against Renin it was 2360 nM. The molecule also returned a solubility in [11] of 1372 µM (≈ 643 µg/mL). Also, the intrinsic clearance in data set [12] was 4 µL/min.
